From ChEMBL document CHEMBL4699405, “TPP-based mitocans: a potent strategy for anticancer drug design” (RSC Med Chem, 2020)

Experiments:
[1] = Antitumor activity against human UCI 101 ovarian cells xenografted in BALB/c mouse assessed as survival of mouse at 8 mg/kg, ip qod followed by six doses at 5 mg/kg qod measured upto 180 days (reference value: 0 (50 days)); type: functional; details: UCI101, ip, 4320 h, time 180 day
MCF7 = test: Cytotoxicity against human MCF7 cells assessed as reduction in cell viability incubated for 24 hrs by SRB assay; type: functional, cell-based; details: MCF7, 24 h
MDA-MB-231 = test: Cytotoxicity against human MDA-MB-231 cells assessed as reduction in cell viability incubated for 24 hrs by SRB assay; type: functional, cell-based; details: MDA-MB-231, 24 h
DU-145 = test: Cytotoxicity against human DU-145 cells assessed as reduction in cell viability incubated for 24 hrs by SRB assay; type: functional, cell-based; details: DU-145, 24 h
HeLa = test: Cytotoxicity against human HeLa cells assessed as reduction in cell viability incubated for 24 hrs by SRB assay; type: functional, cell-based
SK-N-SH = test: Cytotoxicity against human SK-N-SH cells assessed as reduction in cell viability incubated for 24 hrs by SRB assay; type: functional, cell-based
HCT-116 = test: Cytotoxicity against human HCT-116 cells assessed as reduction in cell viability at 10 umol/L incubated for 24 hrs by LDH assay; type: functional; details: HCT-116, 24 h, dose 10 µmol/L

Structure (SMILES) | survival at 8 mg/kg [1] [%] | IC50 (MCF7) [µM] | IC50 (MDA-MB-231) [µM] | IC50 (DU-145) [µM] | IC50 (HeLa) [µM] | IC50 (SK-N-SH) [µM] | inhibition at 10 µM (HCT-116) [%]
CN(C)c1ccc([P+](CCCI)(c2ccc(N(C)C)cc2)c2ccc(N(C)C)cc2)cc1 | 12.5 |  |  |  |  |  | 
CN(C)c1ccc([P+](CCCCl)(c2ccc(N(C)C)cc2)c2ccc(N(C)C)cc2)cc1 | 37.5 |  |  |  |  |  | 
COc1cc(/C=C/C(=O)CC(=O)/C=C/c2ccc(OCCC[P+](c3ccccc3)(c3ccccc3)c3ccccc3)c(OC)c2)ccc1O |  | 5.31 | 8.33 | 8.62 | 7.69 | 8.19 | 
COc1cc(/C=C/C(=O)CC(=O)/C=C/c2ccc(OCCC[P+](c3ccccc3)(c3ccccc3)c3ccccc3)c(OC)c2)ccc1OCCC[P+](c1ccccc1)(c1ccccc1)c1ccccc1 |  | 2.31 | 5.1 | 5.1 | 4.46 | 5.12 | 
C[n+]1ccc(-c2cc[n+](CCCCCCCCCC[P+](c3ccccc3)(c3ccccc3)c3ccccc3)cc2)cc1 |  |  |  |  |  |  | > 50
